This assay concerns HeLa tumor. As to the kind of experiment: therapeutic efficacy in HeLa tumor bearing SCID mice, volume of cancer as a function of time. The format is in vivo. Conditions: FIG. 6. From the text:
The inventors determine the therapeutic efficacy of the multi-responsive targeting nano-containers of the present invention using HeLa tumor bearing SCID mice and monitor the volume of cancer as a function of time.

Take `COc1cccc2c1C(=O)c1c(O)c3c(c(O)c1C2=O)C[C@@](O)(C(=O)CO)C[C@@H]3O[C@H]1C[C@H](N)[C@H](O)[C@H](C)O1` [Doxorubicin, doxorubicin]: the “volume of the cancer as a function of time” value is reported as “the volume of the cancer increases with time”.

Source of the values: patent US20160263221A1, “MULTI-RESPONSIVE TARGETING DRUG DELIVERY SYSTEMS FOR CONTROLLED-RELEASE PHARMACEUTICAL FORMULATION” (priority 2013, published 2016).
